Data on 1 molecule can be found in patent US10253071B2, “Selectin inhibitors, composition, and uses related thereto” (Beth Israel Deaconess Medical Center, Inc., priority 2014, dated 2019).

As a reminder, the IC50 is the concentration that inhibits the measured activity by half. One may read the koff as a measure of how fast the partners let go of each other. The kon is a measure of how fast the partners come together. In general, Kd refers to the free concentration of one partner at which half of the binding sites on the other are occupied at equilibrium, for simple one-to-one binding.

Like-named read-outs stand apart in the source and are kept apart here. Square brackets hold non-standard residues; d marks the D form. Peptide text beside a SMILES is read from it. * marks the point of attachment. X1 = CC(=O)N[C@@H]1[C@@H](O[C@@H]2O[C@H](CO)[C@H](O)[C@H](O)[C@H]2O)[C@@H](O)[C@@H](CO[C@@H]2O[C@H](CO)[C@@H](O[C@@H]3O[C@H](CO)[C@H](O)[C@H](O[C@]4(C(=O)O)C[C@H](O)[C@@H](NC(C)=O)[C@H]([C@H](O)[C@H](O)CO)O4)[C@H]3O)[C@H](O[C@@H]3O[C@@H](C)[C@@H](O)[C@@H](O)[C@@H]3O)[C@H]2NC(C)=O)O[C@@H]1*; Phe(4-CH2SO3H) = N[C@@H](Cc1ccc(CS(=O)(=O)O)cc1)C(=O)O; Mca = COc1ccc2c(CC(=O)*)cc(=O)oc2c1

In data set [1] the target is T1, recombinant human P-selectin Fc chimera (Homo sapiens, UniProt P16109).
T1 sequence (P16109 42-830): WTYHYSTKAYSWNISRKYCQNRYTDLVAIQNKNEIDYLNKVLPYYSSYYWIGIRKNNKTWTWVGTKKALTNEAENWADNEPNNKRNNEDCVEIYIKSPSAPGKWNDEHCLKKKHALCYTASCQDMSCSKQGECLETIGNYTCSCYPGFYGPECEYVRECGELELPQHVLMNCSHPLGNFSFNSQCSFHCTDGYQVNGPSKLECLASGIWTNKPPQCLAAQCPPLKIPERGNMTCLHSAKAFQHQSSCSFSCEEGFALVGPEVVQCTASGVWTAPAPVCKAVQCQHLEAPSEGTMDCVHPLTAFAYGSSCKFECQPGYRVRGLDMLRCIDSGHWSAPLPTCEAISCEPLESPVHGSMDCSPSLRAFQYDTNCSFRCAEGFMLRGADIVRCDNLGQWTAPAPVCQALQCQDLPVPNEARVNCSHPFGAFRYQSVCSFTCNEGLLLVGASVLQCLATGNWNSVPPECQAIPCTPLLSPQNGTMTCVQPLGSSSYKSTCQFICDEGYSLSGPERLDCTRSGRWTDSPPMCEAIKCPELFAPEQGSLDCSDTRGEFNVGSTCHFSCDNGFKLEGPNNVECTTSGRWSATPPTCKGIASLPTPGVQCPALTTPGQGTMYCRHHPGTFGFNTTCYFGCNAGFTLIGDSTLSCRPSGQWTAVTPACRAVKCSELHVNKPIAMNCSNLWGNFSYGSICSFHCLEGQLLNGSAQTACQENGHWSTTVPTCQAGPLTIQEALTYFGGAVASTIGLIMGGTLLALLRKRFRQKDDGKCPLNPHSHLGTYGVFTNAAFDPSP
Description: Flow cytometry, inhibition of human P-selectin Fc chimera binding to human leukocytes. It counts as cell-based. As to the method: (§1) Flow cytometry was used to characterize the ability of GSnP-6 to block binding of selectin-IgG chimeras to murine and human leukocytes. Recombinant mouse P- or L-selectin Fc chimera (2 μg/mL) was incubated with murine neutrophils and GSnP-6 (0-30 μM). Likewise, recombinant human P-selectin or L-selectin Fc chimera were incubated with human peripheral blood neutrophils and monocytes, as well as the human U937 cell line in the presence of GSnP-6 (0-30 μM). Binding of selectin-IgG chimeras was detected with PE-conjugated anti-IgG antibody, quantified as mean fluorescent intensity, and plotted as percent inhibition. Specificity was confirmed with selectin-specific blocking antibodies.
On the technique in general: A flow cytometer gives signals particle by particle.

The target in the next data set is T2, human P-selectin (Homo sapiens, UniProt P16109).
T2 sequence (P16109 42-830): T1 sequence (P16109 42-830)
Description: Biacore binding assay, human P-selectin. As to the method:
(§2) Bound peptides were detected using Alexa-488 labeled anti-human IgG antibody (5 μg/mL). Three lectins RCA-1, AAL, and PNA were used to confirm the sequence of enzymatic steps. Monoclonal antibodies CHO131, PSG2 antibody and PL-1 were used to confirm the presence of SLex, tyrosine sulfates, and the peptide sequence, respectively. Biacore binding analysis to human P-selectin with observed rate constants for (D) GSnP-6, kon 3.1×10^5 M^−1s^−1, koff 6.9×10^3 M^−1s^−; GSn2P-6, kon6.4×10^5 M^−1s^−1, koff 6.8×10^3 M^−1s. Biacore binding analysis to mouse P-selectin with observed rate constants for (E) GsnP-6, kon 4.9×10^4 M^−1s^−1, koff 8.0×10^3 M^−1s^−; GSn2P-6 kon 5.3×10^4 M^−1s^−1, koff 9.0×10^3 M^−1s. (F) Temperature- and pH-dependent stability studies of GSnP-6.
(§3) Dissociation constants (Kd) were determined using a Biacore binding assay after initial capture of biotinylated GS(n)P-6 onto streptavidin-coated sensor chips followed by flow through of P-, L- or E-sel-Ig (2.5 to 60 μg/mL). […] The Kd of GSnP-6 to murine P-selectin was ˜9-fold lower than to human P-selectin.

A short description of data set [2]: Chemical stability at low pH and at high temperature (RP-HPLC). Type of data set: physicochemical. To be noted: sodium acetate/acetic acid buffer pH 5, 37° C.; and 2 mM phosphate buffer pH 7.5, 60° C. The method, then: as §2
The chemical stability of GSnP-6 was evaluated under low pH conditions by incubating the compound in sodium acetate/acetic acid buffer at pH 5, 37° C., as well as under high temperature conditions by incubation in 2 mM phosphate buffer at pH 7.5, 60° C. (FIG. 3E).

Data set [3] has as its target T3, Recombinant mouse P-selectin Fc chimera (Mus musculus, UniProt Q01102).
T3 sequence (Q01102 42-768): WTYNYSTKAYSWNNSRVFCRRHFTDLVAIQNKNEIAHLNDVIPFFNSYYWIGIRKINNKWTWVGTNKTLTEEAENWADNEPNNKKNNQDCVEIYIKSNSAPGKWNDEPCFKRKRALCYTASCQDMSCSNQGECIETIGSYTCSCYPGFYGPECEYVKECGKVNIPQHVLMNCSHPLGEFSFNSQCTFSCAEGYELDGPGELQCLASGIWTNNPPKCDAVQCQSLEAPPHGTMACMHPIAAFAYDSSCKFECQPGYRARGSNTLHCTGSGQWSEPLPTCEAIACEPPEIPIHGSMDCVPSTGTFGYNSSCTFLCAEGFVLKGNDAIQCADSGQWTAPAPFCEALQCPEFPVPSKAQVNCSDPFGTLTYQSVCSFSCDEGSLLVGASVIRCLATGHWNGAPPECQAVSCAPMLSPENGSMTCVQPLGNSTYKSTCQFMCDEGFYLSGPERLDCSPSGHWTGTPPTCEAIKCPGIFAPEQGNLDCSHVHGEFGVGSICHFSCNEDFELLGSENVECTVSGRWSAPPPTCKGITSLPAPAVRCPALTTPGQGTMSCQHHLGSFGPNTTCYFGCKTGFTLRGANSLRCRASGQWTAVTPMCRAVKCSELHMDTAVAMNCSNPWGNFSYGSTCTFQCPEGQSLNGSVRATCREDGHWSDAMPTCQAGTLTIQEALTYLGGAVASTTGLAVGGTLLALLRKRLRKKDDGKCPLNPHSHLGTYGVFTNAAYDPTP
Description: Flow cytometry, inhibition of mouse P-selectin Fc chimera binding to murine neutrophils. It counts as cell-based. As to conditions: murine PMN; chimera 2 μg/mL; read-out: IC50, P-selectin dependent interactions, murine PMN. As to the method: as §1

Another data set has as its target T4, mouse P-selectin (Mus musculus, UniProt Q01102).
T4 sequence (Q01102 42-768): T3 sequence (Q01102 42-768)
Description: Biacore binding assay, mouse P-selectin. The method, then: as §2, §3
In general terms: Surface plasmon resonance follows binding to a sensor surface in real time, without labels.

Take `COc1ccc2c(CC(=O)NCCCC[C@H](N)C(=O)N[C@@H](CCC(=O)O)C(=O)N[C@@H](Cc3ccc(CS(=O)(=O)O)cc3)C(=O)N[C@@H](CCC(=O)O)C(=O)N[C@@H](Cc3ccc(CS(=O)(=O)O)cc3)C(=O)N[C@@H](CC(C)C)C(=O)N[C@@H](CC(=O)O)C(=O)N[C@@H](Cc3ccc(CS(=O)(=O)O)cc3)C(=O)N[C@@H](CC(=O)O)C(=O)N[C@@H](Cc3ccccc3)C(=O)N[C@@H](CC(C)C)C(=O)N3CCC[C@H]3C(=O)N[C@@H](CCC(=O)O)C(=O)N[C@H](C(=O)N[C@@H](CCC(=O)O)C(=O)N3CCC[C@H]3C(=O)N[C@@H](CC(C)C)C(=O)O)[C@@H](C)O[C@H]3O[C@H](CO[C@@H]4O[C@H](CO)[C@@H](O[C@@H]5O[C@H](CO)[C@H](O)[C@H](O[C@]6(C(=O)O)C[C@H](O)[C@@H](NC(C)=O)[C@H]([C@H](O)[C@H](O)CO)O6)[C@H]5O)[C@H](O[C@@H]5O[C@@H](C)[C@@H](O)[C@@H](O)[C@@H]5O)[C@H]4NC(C)=O)[C@H](O)[C@H](O[C@@H]4O[C@H](CO)[C@H](O)[C@H](O)[C@H]4O)[C@H]3NC(C)=O)cc(=O)oc2c1` [GSnP-6] (H-K(Mca)E[Phe(4-CH2SO3H)]E[Phe(4-CH2SO3H)]LD[Phe(4-CH2SO3H)]DFLPET(X1)EPL-OH): the concentration for half-maximal inhibition (IC50) was ~8 µM in data set [1] (human U-937 cells, GSnP-6 0-30 μM, read-out: IC50, P-selectin dependent interactions, human U-937 cells); ~30 µM in data set [1] (human peripheral blood monocytes, read-out: IC50, P-selectin dependent interactions, human monocytes); ~30 µM in data set [1] (human peripheral blood neutrophils (PMN), read-out: IC50, P-selectin dependent interactions, human PMN); ~15 µM in data set [3]. For the same molecule, the koff stood at 0.0069 s⁻¹ at human P-selectin (Biacore observed rate constant) and 0.008 s⁻¹ at mouse P-selectin (read-out: koff, mouse P-selectin). For the same molecule, the kon on human P-selectin (Biacore observed rate constant) was found to be 310000 M⁻¹ s⁻¹; at mouse P-selectin (read-out: kon, mouse P-selectin), 49000 M⁻¹ s⁻¹. Moreover, the Kd at human P-selectin (biotinylated GS(n)P-6 captured on streptavidin chip, P-sel-Ig 2.5 to 60 μg/mL, read-out: Dissociation constant (Kd) to human P-selectin) amounted to 0.022 µM. Moreover, the “chemical stability (degraded products by RP-HPLC)” value in data set [2] is listed as “degraded products were not detected”. The “Kd to murine P-selectin relative to human P-selectin” value at mouse P-selectin (printed as fold lower than to human P-selectin) was ~9 fold.
